Experimental findings from paper PMC5118696, “Identification of inhibitors that dually target the new permeability pathway and dihydroorotate dehydrogenase in the blood stage of Plasmodium falciparum” (Scientific Reports, 2016) are described below.

Assay [1] has as its system Hyp1-NLuc Plasmodium falciparum-infected erythrocytes (new permeability pathway, NPP). Briefly: microbe, parasite or virus in culture. To be noted: Erythrocyte, 0.33 h, read-out: Mean RLU at 28 min (As % of DMSO control).
Assay [2] shares this test system. In words: microbe, parasite or virus in culture. Conditions: Erythrocyte, 0.33 h, read-out: % of control remaining.

Like-named read-outs stand apart in the source and are kept apart here.

For the compound `CCN1CCN(Cc2ccc(NC(=O)c3cc4ccc5cccnc5c4[nH]3)cc2)CC1` [MMV020548], the activity at 2 µM came to 92.8% in assay [1] and 55.5% in assay [2].

Regarding `CN(C)c1ccc(C=Cc2nc(=O)c3ccccc3o2)cc1` [MMV006309], the activity at 2 µM in assay [1] is 36.4%; in assay [2] it was 19%.

As to `CC(C)=CCN1CCC(C(=O)Nc2ccc(-c3nc4ccccc4[nH]3)cc2)CC1` [MMV665946], the activity at 2 µM in assay [1] was 106%; in assay [2], 121%.

For the compound `CC(C)CNC(=O)c1c(N)n(CCc2ccccc2F)c2nc3ccccc3nc12` [MMV396744], the results for the activity at 2 µM in assay [1] and in assay [2] were 108% and 110%, respectively.

Regarding `CCOc1ccc2nc(C)cc(Nc3ccc(N(C)C)cc3)c2c1` [MMV007020], the activity at 2 µM in assay [1] and in assay [2] was 102% throughout.

Consider `COc1ccc2c(c1OC)C(=O)N1c3ccccc3N=C(c3ccc(C)cc3)CC21` (stereo not shown) [MMV000917], for which the results for the activity at 2 µM in assay [1] and in assay [2] were 90.9% and 94.9%, respectively.

With `Cc1c(C)n(CC(O)CNC2CCCCC2C)c2ccccc12` (stereo not shown) [MMV665806], the activity at 2 µM in assay [1] is 106%; in assay [2] it was 108%.

For `O=C(NNc1cc(N2CCCC2)nc(N2CCCC2)n1)c1ccccc1` [MMV396770], the values for the activity at 2 µM in assay [1] and in assay [2] were 101% and 88.7%, respectively.

Take `c1ccc(CNc2nc(Nc3ccccc3)nc3ccccc23)cc1` [MMV006169]: the activity at 2 µM in assay [1] was found to be 102%; in assay [2] it was 114%.

As to `Cc1nc2ccccc2c(O)c1CC=C(Cl)Cl` [MMV665994], the activity at 2 µM in assay [1] worked out at 96.6%; in assay [2] it was 101%.

As for `CNCCCNc1ccnc2cc(Cl)ccc12` [MMV020500], the figures for the activity at 2 µM in assay [1] and in assay [2] were 98.7% and 97.7%, respectively.

Take `Nc1ccc(-c2nc3cc(Oc4ccc(Oc5ccc6[nH]c(-c7ccc(N)cc7)nc6c5)cc4)ccc3[nH]2)cc1` [MMV011895]: the activity at 2 µM was 91.2% in assay [1] and 74.5% in assay [2].

With `CCOC(=O)c1cnc2ccc(CC)cc2c1O` [MMV007116], the activity at 2 µM in assay [1] was found to be 103%; in assay [2], 85.3%.

`CCCOCc1cc(CN2CCN(c3cccc(Cl)c3)CC2)c(O)c2ncccc12` [MMV000787]: the figures for the activity at 2 µM in assay [1] and in assay [2] were 101% and 111%, respectively.

As to `COc1ccc2c(c1)OC(O)(C(F)(F)C(F)(F)F)CC2=O` (stereo not shown) [MMV007839], the values for the activity at 2 µM in assay [1] and in assay [2] were 104% and 93.7%, respectively.

Turning to `COc1ccc(-c2nonc2NC(=O)c2cccc(C)c2)cc1OC` [MMV665890], the activity at 2 µM was determined as 104% in assay [1] and 113% in assay [2].

As for `COc1ccc2nc(C)cc(Nc3ccc(Cl)cc3)c2c1` [MMV007875], the activity at 2 µM in assay [1] turned out to be 98.8%; in assay [2] it was 99.5%.

Take `COc1ccc(C(=O)Nc2ccc3nc(N4CCCCC4)cc(C)c3c2)cc1OC` [MMV019758]: the activity at 2 µM in assay [1] was determined as 100%; in assay [2] it was 108%.

Take `CCCCCCn1c(=N)n(CC(O)COc2cccc(C)c2)c2ccccc21` (stereo not shown) [MMV000445]: the values for the activity at 2 µM in assay [1] and in assay [2] were 87.2% and 93.8%, respectively.

As for `Cc1sc(NC(=O)c2ccccc2)c(C(c2cccs2)N2CCN(c3ccccc3)CC2)c1C` (stereo not shown) [MMV396652], the activity at 2 µM was determined as 101% in assay [1] and 104% in assay [2].

On to `COc1ccccc1CNC(=O)CCn1c(=O)[nH]c2ccccc2c1=O` [MMV665916], for which the activity at 2 µM in assay [1] stood at 98.8%; in assay [2], 98.4%.

On to `COc1cc(-c2nc(-c3ccccc3)c(-c3ccccc3)[nH]2)cc(OC)c1O` [MMV020750], for which the activity at 2 µM in assay [1] amounted to 102%; in assay [2], 109%.

Regarding `COC(=O)c1ccc(Cl)c2c1C1C=CCC1C(c1cccc3ccccc13)N2` (stereo not shown) [MMV667489], the activity at 2 µM in assay [1] was found to be 103%; in assay [2] it was 100%.

`CCOc1c(Cl)cc(CNCC(O)c2ccccc2)cc1OC` (stereo not shown) [MMV396632]: the activity at 2 µM in assay [1] was 99.9%; in assay [2] it was 101%.

With `CCCCCCc1cc2cc(-c3nc4ccccc4[nH]3)c(=Nc3ccccc3C)oc2cc1O` [MMV666597], the activity at 2 µM was determined as 102% in assay [1] and 111% in assay [2].

For `Cc1cccc(Nc2nc(N)c3ccccc3n2)c1` [MMV019110], the results for the activity at 2 µM in assay [1] and in assay [2] were 105% and 106%, respectively.

Consider `Oc1c(CN2CCN(c3ccccc3F)CC2)cc(Br)c2cccnc12` [MMV000760], for which the activity at 2 µM in assay [1] is 112%; in assay [2], 114%.

For the compound `COc1cc(-c2nc(-c3ccc(Sc4ccccc4)cc3)c(-c3ccccc3)[nH]2)cc(OC)c1O` [MMV007273], the activity at 2 µM was determined as 97.2% in assay [1] and 105% in assay [2].

As to `COc1ccc2c(c1)C1(Nc3ccccc3-c3nc4ccccc4n31)C(=O)N2` (stereo not shown) [MMV396749], the results for the activity at 2 µM in assay [1] and in assay [2] were 103% and 104%, respectively.

In the case of `COc1ccc(CNC(=O)c2cc3c(=O)n4ccccc4nc3n(CCc3ccccc3)c2=N)cc1` [MMV665881], the activity at 2 µM in assay [1] was 104%; in assay [2], 98%.

For the compound `CCCCc1c(CCC)c(=N)c2ccccc2n1C` [MMV007764], the activity at 2 µM worked out at 110% in assay [1] and 111% in assay [2].

With `COc1ccc2nc(C)cc(Nc3cccc(O)c3)c2c1` [MMV008212], the activity at 2 µM was 106% in assay [1] and 107% in assay [2].

`O=C(NC1CCCC1)c1ccc(N2CCC(NCc3cccc(C(F)(F)F)c3)CC2)cc1` [MMV666070]: the activity at 2 µM in assay [1] came out at 111%; in assay [2] it was 123%.

As for `CC(=O)Nc1nnc(SCc2c(C)cc(C(C)(C)C)cc2C)s1` [MMV020700], the activity at 2 µM in assay [1] stood at 114%; in assay [2], 115%.

As for `CCOC(=O)c1cnc2c(C)cccc2c1Nc1ccc(C(C)=O)cc1` [MMV006250], the activity at 2 µM in assay [1] is 95.8%; in assay [2] it was 103%.

Regarding `COc1ccc(Nc2nc(NCc3ccccc3)c3ccccc3n2)cc1` [MMV000963], the activity at 2 µM turned out to be 103% in assay [1] and 106% in assay [2].

As to `COc1cc(C(=O)ON=C(N)Cc2cccc3ccccc23)cc(OC)c1OC` [MMV666687], the values for the activity at 2 µM in assay [1] and in assay [2] were 106% and 104%, respectively.

On to `O=C(Nc1ccc(N2CCCCC2)c(Cl)c1)c1ccc(Br)o1` [MMV019700], for which the results for the activity at 2 µM in assay [1] and in assay [2] were 117% and 118%, respectively.

As for `Cc1ccc(C)c(-c2csc(Nc3ccc(C)c(C)c3)n2)c1` [MMV007654], the values for the activity at 2 µM in assay [1] and in assay [2] were 94.4% and 91.8%, respectively.

Consider `COCCNC(=O)c1ccc(OC2CCN(Cc3ccc(F)c(F)c3)CC2)c(Cl)c1` [MMV666072], for which the activity at 2 µM came to 103% in assay [1] and 115% in assay [2].

Regarding `N#Cc1nc(Cc2cccc3ccccc23)oc1N1CCN(C(c2ccccc2)c2ccccc2)CC1` [MMV396726], the values for the activity at 2 µM in assay [1] and in assay [2] were 99.9% and 99.5%, respectively.

As to `CN1CCN(c2c3c(c(C#N)c4nc5ccccc5n24)CCC3)CC1` [MMV008127], the activity at 2 µM in assay [1] came out at 112%; in assay [2] it was 111%.

On to `COc1ccccc1CNC(=O)C1c2ccccc2C(=O)N(CC(C)C)C1c1cccs1` (stereo not shown) [MMV000648], for which the results for the activity at 2 µM in assay [1] and in assay [2] were 108% and 105%, respectively.

In the case of `CCOc1cccc2sc(N(Cc3cccnc3)C(=O)C3CCCCC3)nc12` [MMV001230], the activity at 2 µM in assay [1] stood at 103%; in assay [2], 113%.

On to `CC(C)(C)c1ccc(C2CC3=Nc4ccccc4N(C(=O)c4ccccc4Cl)C(c4ccc(F)cc4)C3=C(O)C2)cc1` (stereo not shown) [MMV011436], for which the activity at 2 µM in assay [1] and in assay [2] was 106% throughout.

`Cc1cc(C=C2SC(=Nc3ccccc3)N(C3CCCC3)C2=O)c(C)n1-c1ccc(Cl)cc1` [MMV666688]: the activity at 2 µM in assay [1] came to 99.9%; in assay [2], 98.7%.

For the compound `COc1ccc(-c2cc3c(SCC(=O)Nc4cc(C(F)(F)F)ccc4Cl)nccn3n2)cc1` [MMV396679], the activity at 2 µM was determined as 106% in assay [1] and 105% in assay [2].

`Oc1ccccc1CNCC12CC3CC(CC(C3)C1)C2` [MMV020788]: the figures for the activity at 2 µM in assay [1] and in assay [2] were 108% and 109%, respectively.

As for `Cc1cc(C)c2c(c1)OCN(Cc1ccccc1Cl)C2` [MMV006558], the activity at 2 µM in assay [1] and in assay [2] was 108% each time.

`CCOC(=O)C1=CN(C)C=C(C(=O)OCC)C1c1cc(Br)c(OCC)c(OC)c1` [MMV006656]: the figures for the activity at 2 µM in assay [1] and in assay [2] were 105% and 102%, respectively.

`COCCn1c(C)nc2ccccc2c1=O` [MMV665904]: the activity at 2 µM in assay [1] was found to be 110%; in assay [2], 112%.

Turning to `COc1ccc(CCN2CCC(CN(C)Cc3cnn(-c4ccccc4)c3)CC2)cc1` [MMV666069], the activity at 2 µM is 102% in assay [1] and 105% in assay [2].

Turning to `Fc1ccc2[nH]c3c(NCCCN4CCOCC4)ncnc3c2c1` [MMV019871], the activity at 2 µM stood at 106% in assay [1] and 102% in assay [2].

Turning to `COc1ccc(C2c3ccc4ccccc4c3Oc3ncn(CCCn4ccnc4)c(=N)c32)cc1OC` (stereo not shown) [MMV667490], the activity at 2 µM in assay [1] amounted to 102%; in assay [2], 98.4%.

In the case of `Cc1ccccc1OCCSc1nc2ccc(NC(=O)c3cccs3)cc2s1` [MMV007396], the results for the activity at 2 µM in assay [1] and in assay [2] were 104% and 111%, respectively.

With `CCCn1c(=N)c(C(=O)NC2CCCCC2)cc2c(=O)n3cccc(C)c3nc21` [MMV008829], the figures for the activity at 2 µM in assay [1] and in assay [2] were 106% and 105%, respectively.

With `COc1cccc(C=Cc2nc(=O)c3ccccc3o2)c1OC` [MMV666693], the activity at 2 µM worked out at 75% in assay [1] and 29.9% in assay [2].

As to `O=C(Cc1ccccc1)NC(c1ccc(Cl)cc1)c1c(O)ccc2ccccc12` (stereo not shown) [MMV665972], the values for the activity at 2 µM in assay [1] and in assay [2] were 68.8% and 69.4%, respectively.

For `CC1CN(C(=O)c2sc3ccccc3c2Cl)CC(C)O1` (stereo not shown) [MMV020492], the activity at 2 µM in assay [1] amounted to 103%; in assay [2], 102%.
